# Experimental data taken from patent publication US20250000788A1, “BIOCOMPATIBLE DEVICES FOR CELL-BASED THERAPIES AND RELATED METHODS” (SIGILON THERAPEUTICS, INC., priority 2021, published 2025).
# Assays:
# [1] = tested on: immune-competent C57Bl/6 mice; experiment: PFO induction on spheres with GLA-secreting human cells and drug particles implanted in the peritoneum of mice; type: in vivo; settings: explanted after 20 days; for PFO induction on explanted spheres (brightfield micrographs): GLA-secreting human cells co-encapsulated with drug particles, peritoneum; for computer aided opacity scoring of PFO induction: FIG. 4B
# Source text: GLA-secreting human cells were co-encapsulated with particles of the indicated drug and implanted in the peritoneum of immune-competent C57Bl/6 mice.
# GLA-secreting human ARPE-19 cells were co-encapsulated with or without TAH particles into spheres that were then implanted in the peritoneum of immune-competent C57Bl/6 mice.
# [2] = tested on: immune-competent C57Bl/6 mice; experiment: PFO on spheres with mIL-10 secreting ARPE-19 cells and glucocorticoid particles implanted in the peritoneum of mice; type: in vivo; settings: mIL-10 secreting ARPE-19 cells, explanted at 28 days, FIGS. 5C-5L
# [3] = Release of soluble drug from alginate spheres containing drug particles, incubated in Normosol; type: physicochemical; settings: 1 ml Normosol, 37 C; over a 62 (Cyclosporine A) and 32 (TAH) day period respectively; FIG. 1B, 2B
# Source text: Cyclosporine A particles and Triamcinolone Hexacetonide (TAH) particles were encapsulated in the inner compartment of two compartment alginate hydrogel capsules (“spheres”).
# [4] = tested on: immune-competent C57Bl/6 mice; experiment: In vivo hGLA production and viability of GLA-secreting human cells co-encapsulated with TAH crystals, implanted in mice
# Experimental: GLA-secreting human cells were co-encapsulated with TAH crystals into spheres that were then implanted in the peritoneum of immune-competent C57Bl/6 mice. The amount of hGLA produced by the spheres (e.g., devices) in vivo at site of implantation and in systemic circulation was measured.
# [5] = tested on: immune-competent Sprague Dawley rats; experiment: PFO on spheres with FF particles and ARPE-19 cells implanted in the peritoneum of rats; type: in vivo; settings: unmodified ARPE-19 cells or cells secreting one of two parathyroid hormone fusion proteins, 21 days, data not shown
# Source text: In a third experiment, spheres co-encapsulating FF particles and either unmodified human ARPE-19 cells or ARPE-19 cells genetically modified to secrete one of two different fusion proteins comprising human parathyroid hormone were implanted in the peritoneum of immune-competent Sprague Dawley rats (five rats per group).
# [6] = 20 days post-implantation, FIG. 6
Compound,PFO induction on explanted spheres (brightfield micrographs) [1],computer aided opacity scoring of PFO induction [1],PFO on explanted spheres [2],also measured
C[C@@H]1CCN(C(=O)CC#N)C[C@@H]1N(C)c1ncnc2[nH]ccc12 [Tofactitinib],extensive PFO induction,no statistically significant decrease in PFO induction,–,–
fluticasone propionate [FP],–,–,minimal to no PFO,–
"CC(C)(C)CC(=O)OCC(=O)[C@@]12OC(C)(C)O[C@@H]1C[C@H]1[C@@H]3CCC4=CC(=O)C=C[C@]4(C)[C@@]3(F)[C@@H](O)C[C@@]12C [TAH, triamcinolone hexacetonide]",completely prevented induction of PFO,–,minimal to no PFO,"soluble drug released from the spheres into the Normosol solution [3]: extended release; hGLA in plasma [4, 6]: Significant levels of hGLA; hGLA in the peritoneal lavage [4, 6]: Significant levels of hGLA; viability in vivo of co-encapsulated GLA-secreting human cells ([4]; retrieved spheres, over a course of 20 days, data not shown): maintained their viability"
COc1c(C)c2c(c(O)c1C/C=C(\C)CCC(=O)OCCN1CCOCC1)C(=O)OC2 [MMF],extensive PFO induction,no statistically significant decrease in PFO induction,–,–
"C[C@@H]1C[C@H]2[C@@H]3CCC4=CC(=O)C=C[C@]4(C)[C@@]3(Cl)[C@@H](O)C[C@]2(C)[C@@]1(OC(=O)c1ccco1)C(=O)CCl [MF, mometasone furoate]",–,–,minimal to no PFO,–
fluticasone furoate [FF],–,–,minimal to no PFO,PFO on explanted spheres [5]: minimal to no PFO
